Test results: PubChem BioAssay AID330 (DTP/NCI, 2004)
“And” between values parts separate entries of the source, which are not always exact repeats. Identical values can stand only once. Inconclusive results and toxic doses are left out. How the source made its calls: active means survival T/C of 150% or more; inactive means T/C below 125% in these data.

Test system: P388 leukemia ip, CD2F1 mice, survival T/C
Test: NCI In Vivo Anticancer Drug Screen. Data for tumor model P388 Leukemia (intraperitoneal) in CD2F1 (CDF1) mice
Conditions: endpoint: median survival time, higher = longer survival
Procedure, shortened: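 Mice carrying the transplanted tumor received test compound or vehicle. Survival was recorded in each group, and the value is the treated-group measurement divided by that of the vehicle-treated control group.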

[1] = dose: 25.0 mg/kg/injection, schedule: Q01DX009 (ip), vehicle: saline with Tween-80
[2] = dose: 50.0 mg/kg/injection, schedule: Q01DX009 (ip), vehicle: saline
[3] = dose: 50.0 mg/kg/injection, schedule: Q01DX009 (ip), vehicle: saline with Tween-80
[4] = dose: 100.0 mg/kg/injection, schedule: Q01DX009 (ip), vehicle: saline with Tween-80
[5] = dose: 200.0 mg/kg/injection, schedule: Q01DX009 (ip), vehicle: saline with Tween-80
[6] = dose: 100.0 mg/kg/injection, schedule: Q01DX009 (ip), vehicle: saline
[7] = dose: 200.0 mg/kg/injection, schedule: Q01DX009 (ip), vehicle: saline
[8] = dose: 25.0 mg/kg/injection, schedule: Q01DX009 (ip), vehicle: Klucel (hydroxypropylcellulose) (HPC)
[9] = dose: 50.0 mg/kg/injection, schedule: Q01DX009 (ip), vehicle: Klucel (hydroxypropylcellulose) (HPC)
[10] = dose: 100.0 mg/kg/injection, schedule: Q01DX009 (ip), vehicle: Klucel (hydroxypropylcellulose) (HPC)
[11] = dose: 50.0 mg/kg/injection, schedule: Q04DX003 (ip), vehicle: saline with Tween-80
[12] = dose: 100.0 mg/kg/injection, schedule: Q04DX003 (ip), vehicle: saline with Tween-80
[13] = dose: 50.0 mg/kg/injection, schedule: Q01DX005 (ip), vehicle: Klucel (hydroxypropylcellulose) (HPC)
[14] = dose: 100.0 mg/kg/injection, schedule: Q01DX005 (ip), vehicle: Klucel (hydroxypropylcellulose) (HPC)
[15] = dose: 200.0 mg/kg/injection, schedule: Q01DX005 (ip), vehicle: Klucel (hydroxypropylcellulose) (HPC)
[16] = dose: 25.0 mg/kg/injection, schedule: Q04DX003 (ip), vehicle: saline with Tween-80

Measured: T/C

CS(=O)(=O)OCCN(CCOS(C)(=O)=O)c1ccccc1
active: dose: 6.25 mg/kg/injection, schedule: Q01DX009 (ip), vehicle: saline with Tween-80 154 % of control | dose: 12.5 mg/kg/injection, schedule: Q01DX009 (ip), vehicle: saline with Tween-80 200 % of control | [1] 181 % of control | dose: 25.0 mg/kg/injection, schedule: Q01DX009 (ip), vehicle: saline 204 % of control | dose: 25.0 mg/kg/injection, schedule: Q04DX003 (ip), vehicle: saline 204 % of control
inactive: dose: 1.56 mg/kg/injection, schedule: Q04DX003 (ip), vehicle: saline 109 % of control | dose: 3.13 mg/kg/injection, schedule: Q04DX003 (ip), vehicle: saline 104 % of control | dose: 6.25 mg/kg/injection, schedule: Q04DX003 (ip), vehicle: saline 122 % of control | [2] 90 % of control

C[Si](C)(C[P+](=O)[O][Sn]([CH3])([CH3])[O][P+](=O)C[Si](C)(C)c1ccccc1)c1ccccc1 (stereo not drawn)
inactive: dose: 3.75 mg/kg/injection, schedule: Q01DX005 (ip), vehicle: saline with Tween-80 100 % of control | dose: 7.5 mg/kg/injection, schedule: Q01DX005 (ip), vehicle: saline with Tween-80 93 % of control

CC(C)=CCc1c2c(c(O)c3c(=O)c(-c4ccc(O)cc4O)coc13)C=CC(C)(C)O2
inactive: [1] 104 % of control | [3] 102 % of control | [4] 104 % of control | [5] 99 % of control

COc1ccc(CSC2=C(C#N)C(=O)NC3(CCCCC3)S2)cc1
inactive: [3] 112 % of control | [4] 95 % of control | [5] 97 % of control

COCC1(C)CCCC2(C)C3=C(CCC(OC)C3)CCC12 (stereo not drawn)
inactive: dose: 100.0 mg/kg/injection, schedule: Q01DX001 (ip), vehicle: saline 99 % of control | dose: 200.0 mg/kg/injection, schedule: Q01DX001 (ip), vehicle: saline 96 % of control | dose: 400.0 mg/kg/injection, schedule: Q01DX001 (ip), vehicle: saline 93 % of control

Cc1c(C2=NCC(C)S2)ccc(O)c1S(=O)(=O)O (stereo not drawn)
inactive: [2] 92 % of control | [6] 92 % of control | [7] 101 % of control

O=C1c2cccnc2C(=O)N1CCO
inactive: dose: 50.0 mg/kg/injection, schedule: Q01DX005 (ip), vehicle: saline 95 % of control | dose: 100.0 mg/kg/injection, schedule: Q01DX005 (ip), vehicle: saline 100 % of control | dose: 200.0 mg/kg/injection, schedule: Q01DX005 (ip), vehicle: saline 101 % of control

CC1=C(CN(CC(=O)O)CC(=O)O)C(=O)C(C(C)C)=C/C1=C(\c1ccccc1S(=O)(=O)O)c1cc(C(C)C)c(O)c(CN(CC(=O)O)CC(=O)O)c1C
inactive: [2] 108 % of control | [6] 104 % of control | [7] 103 % of control

CCCCC(O)/C=C(C)/C=C/C=C/C(=O)N1CCCC1=O (stereo not drawn)
inactive: [8] 113 % of control | [9] 113 % of control | [10] 110 % of control | dose: 200.0 mg/kg/injection, schedule: Q01DX009 (ip), vehicle: Klucel (hydroxypropylcellulose) (HPC) 110 % of control | dose: 400.0 mg/kg/injection, schedule: Q01DX009 (ip), vehicle: Klucel (hydroxypropylcellulose) (HPC) 118 % of control

O=[N+]([O-])c1ccc(/C=C/[P+](c2ccccc2)(c2ccccc2)c2ccccc2)o1
inactive: dose: 0.78 mg/kg/injection, schedule: Q01DX009 (ip), vehicle: saline 103 % of control | dose: 1.56 mg/kg/injection, schedule: Q01DX009 (ip), vehicle: saline 98 % of control | dose: 3.12 mg/kg/injection, schedule: Q01DX009 (ip), vehicle: saline 101 % of control

N#CCCN(CCc1ccccn1)C(=S)Nc1cccc(C(F)(F)F)c1
inactive: [11] 99 % of control | [12] 101 % of control | dose: 200.0 mg/kg/injection, schedule: Q04DX003 (ip), vehicle: saline with Tween-80 100 % of control | dose: 400.0 mg/kg/injection, schedule: Q04DX003 (ip), vehicle: saline with Tween-80 101 % of control

Cc1cccc(N=Nc2c(-c3ccccc3)nn(C(N)=S)c2-c2ccccc2)c1C
inactive: dose: 73.9 mg/kg/injection, schedule: Q04DX002 (ip), vehicle: Klucel (hydroxypropylcellulose) (HPC) 96 % of control | dose: 147.0 mg/kg/injection, schedule: Q04DX002 (ip), vehicle: Klucel (hydroxypropylcellulose) (HPC) 96 % of control | dose: 295.0 mg/kg/injection, schedule: Q04DX002 (ip), vehicle: Klucel (hydroxypropylcellulose) (HPC) 100 % of control

O=C1CSC(c2ccccc2)N1c1nncs1 (stereo not drawn)
inactive: dose: 30.0 mg/kg/injection, schedule: Q01DX005 (ip), vehicle: Klucel (hydroxypropylcellulose) (HPC) 100 % of control | dose: 60.0 mg/kg/injection, schedule: Q01DX005 (ip), vehicle: Klucel (hydroxypropylcellulose) (HPC) 101 % of control | dose: 120.0 mg/kg/injection, schedule: Q01DX005 (ip), vehicle: Klucel (hydroxypropylcellulose) (HPC) 101 % of control | dose: 240.0 mg/kg/injection, schedule: Q01DX005 (ip), vehicle: Klucel (hydroxypropylcellulose) (HPC) 103 % of control

O=C(O)C1Cc2c([nH]c3ccccc23)CN1 (stereo not drawn)
inactive: dose: 12.5 mg/kg/injection, schedule: Q01DX009 (ip), vehicle: suspension in saline 100 % of control | dose: 25.0 mg/kg/injection, schedule: Q01DX009 (ip), vehicle: suspension in saline 109 % of control | dose: 50.0 mg/kg/injection, schedule: Q01DX009 (ip), vehicle: suspension in saline 105 % of control | dose: 100.0 mg/kg/injection, schedule: Q01DX009 (ip), vehicle: suspension in saline 106 % of control

O=[N+]([O-])c1ccc2c(c1)nc(-c1ccccn1)n2CCc1ccncc1
inactive: dose: 25.0 mg/kg/injection, schedule: Q01DX005 (ip), vehicle: Klucel (hydroxypropylcellulose) (HPC) 95 % of control | [13] 94 % of control | [14] 92 % of control | [15] 91 % of control

CC(=O)C1=C(C)NC(C)=C(C(C)=O)C1c1cccc([N+](=O)[O-])c1
inactive: [16] 100 % of control | [11] 100 % of control | [12] 100 % of control and 91 % of control

CC1CC2OC(=O)C(CN3CC3)C2CC2(C)C(O)CC(O)C12 (stereo not drawn)
inactive: dose: 25.0 mg/kg/injection, schedule: Q04DX002 (ip), vehicle: saline with Tween-80 108 % of control and 93 % of control | dose: 50.0 mg/kg/injection, schedule: Q04DX002 (ip), vehicle: saline with Tween-80 101 % of control and 113 % of control | dose: 100.0 mg/kg/injection, schedule: Q04DX002 (ip), vehicle: saline with Tween-80 102 % of control and 113 % of control

C[N+](C)(C)CCC(=O)c1ccc([N+](=O)[O-])cc1
inactive: [2] 109 % of control | [6] 118 % of control

COc1cc(C(=O)Nc2cccc(Cl)c2Cl)cc(OC)c1OC
inactive: [13] 104 % of control | [14] 96 % of control | [15] 92 % of control

NC(N)=O.NC(N)=O.NC(N)=O.NC(N)=O.NC(N)=O.NC(N)=O.[O-][Cl+3]([O-])([O-])O.[V]
inactive: [16] 94 % of control | [11] 97 % of control | [12] 109 % of control

CN=C([O-])c1c(=O)o[nH][n+]1-c1ccccc1
inactive: dose: 60.0 mg/kg/injection, schedule: Q01DX005 (ip), vehicle: saline with Tween-80 95 % of control | dose: 120.0 mg/kg/injection, schedule: Q01DX005 (ip), vehicle: saline with Tween-80 98 % of control | dose: 240.0 mg/kg/injection, schedule: Q01DX005 (ip), vehicle: saline with Tween-80 94 % of control

CC1(Cl)CC2OC3(Br)C=CC(C)(O)C2(CC1Br)C3(C)C (stereo not drawn)
inactive: dose: 12.5 mg/kg/injection, schedule: Q01DX009 (ip), vehicle: Klucel (hydroxypropylcellulose) (HPC) 101 % of control | [8] 100 % of control | [9] 100 % of control | [10] 101 % of control

CC(=O)N1NC(=O)c2c(c3cc(OCc4ccccc4)ccc3n2C)C1C(C)C (stereo not drawn)
inactive: dose: 30.0 mg/kg/injection, schedule: Q04DX002 (ip), vehicle: Klucel (hydroxypropylcellulose) (HPC) 98 % of control | dose: 60.0 mg/kg/injection, schedule: Q04DX002 (ip), vehicle: Klucel (hydroxypropylcellulose) (HPC) 96 % of control | dose: 120.0 mg/kg/injection, schedule: Q04DX002 (ip), vehicle: Klucel (hydroxypropylcellulose) (HPC) 96 % of control

CCOc1ccc(C[Se][Se]Cc2ccc(OCC)cc2)cc1
inactive: [9] 109 % of control | [10] 91 % of control
